Measurements reported in patent US10428070B2, “Hepatitis B antiviral agents” (Enanta Pharmaceuticals, Inc., priority 2017, dated 2019).
pEC50: −log10 of the molar value.

tested on: HBV; assay: HepAD38 antiviral assay: reduction of viral product accumulation (virion DNA by qPCR, HBsAg or HBeAg by ELISA); format: cell-based, hepatitis B virus; conditions: HepAD38 cells; harvest five days after compound addition; 50% reduction of viral product accumulation relative to no drug controls
Method: Methods: HepAD38 cells are maintained as previously reported (Ladner et al, Antimicrob. Agents Chemother. 1997, […], 1715). Briefly, cells are passaged upon attaining confluency in DMEM/F12 media in the presence of 10% FBS, Penn/Strep, 250 μg/mL G418, and 1 μg/ml tetracycline. Novel compounds are screened by first washing cells three times with PBS to remove tetracycline, and plating in 96 well plates at 35,000 cells/well. Compounds dissolved in DMSO are then diluted 1:200 into wells containing cells. Five days after compound addition, material is harvested for analysis. For an extended 8 day analysis, cells are plated and treated as described above, but media and compound are refreshed on d2 and d5 post initial treatment.
On harvest day, virion DNA is obtained by lysing with Sidestep Lysis and Stabilization Buffer and then quantified via quantitative real time PCR. Commercially available ELISA kits are used to quantitate the viral proteins HBsAg (Alpco) or HbeAg (US Biological) by following the manufacturer's recommended protocol after diluting samples to match the linear range of their respective assays.

Work on O=C(O)CCN1C(=O)OC[C@@]12CC1=C(c3ccn(C(F)F)n3)[C@H](c3ccc(F)cc3Cl)N=C(c3nccs3)N1C2 [Example 22] yielded a pEC50 of less than 6.40.
O=C(O)CCN1C(=O)OC[C@@]12CC1=C(c3ccn(C(F)F)n3)[C@H](c3ccc(F)cc3Cl)N=C(c3nccs3)N1C2 [Example 30] gave a pEC50 greater than 7.00.

same assay, conditions: Hepatitis B virus, HePAD38, 120 h, HepAD38 cells; harvest five days after compound addition; 50% reduction of viral product accumulation relative to no drug controls

CCOC(=O)C1=C2C[C@@]3(COC(=O)N3)CN2C(c2nccs2)=N[C@H]1c1ccc(F)cc1Cl (relative stereo) [Example 11] and CCOC(=O)C1=C2C[C@]3(COC(=O)N3)CN2C(c2nccs2)=N[C@H]1c1ccc(F)cc1Cl (relative stereo) [Example 12] cannot be ordered by pEC50: greater than 7.00 for the first, greater than 7.00 for the second.

Compared with CCOC(=O)C1=C2C[C@@]3(CNC(=O)N3)CN2C(c2nccs2)=N[C@H]1c1ccc(F)cc1Cl (relative stereo) [Example 13], CCOC(=O)C1=C2C[C@]3(CNC(=O)N3)CN2C(c2nccs2)=N[C@H]1c1ccc(F)cc1Cl (relative stereo) [Example 14] is higher in pEC50: less than 6.40 for the first, greater than 7.00 for the second. The second is the more potent here.

CCOC(=O)C1=C2C[C@@]3(CNS(=O)(=O)N3)CN2C(c2nccs2)=N[C@H]1c1ccc(F)cc1Cl (relative stereo) [Example 15] and CCOC(=O)C1=C2C[C@]3(CNS(=O)(=O)N3)CN2C(c2nccs2)=N[C@H]1c1ccc(F)cc1Cl (relative stereo) [Example 16] cannot be ordered by pEC50: greater than 7.00 for the first, greater than 7.00 for the second.

O=C1NC[C@@]2(CC3=C(c4cnn(C(F)F)c4)[C@H](c4ccc(F)cc4Cl)N=C(c4nccs4)N3C2)N1 [Example 1] and O=C1NC[C@]2(CC3=C(c4cnn(C(F)F)c4)[C@H](c4ccc(F)cc4Cl)N=C(c4nccs4)N3C2)N1 [Example 2] cannot be ordered by pEC50: greater than 7.00 for the first, greater than 7.00 for the second.

O=C1N[C@@]2(CO1)CC1=C(c3cnn(C(F)F)c3)[C@H](c3ccc(F)cc3Cl)N=C(c3nccs3)N1C2 [Example 3] and O=C1N[C@]2(CO1)CC1=C(c3cnn(C(F)F)c3)[C@H](c3ccc(F)cc3Cl)N=C(c3nccs3)N1C2 [Example 4] cannot be ordered by pEC50: greater than 7.00 for the first, greater than 7.00 for the second.

O=S1(=O)NC[C@]2(CC3=C(c4cnn(C(F)F)c4)[C@H](c4ccc(F)cc4Cl)N=C(c4nccs4)N3C2)N1 [Example 5] and O=S1(=O)NC[C@@]2(CC3=C(c4cnn(C(F)F)c4)[C@H](c4ccc(F)cc4Cl)N=C(c4nccs4)N3C2)N1 [Example 10] cannot be ordered by pEC50: greater than 7.00 for the first, greater than 7.00 for the second.

First: CS(=O)(=O)OC1CCCC12CC1=C(c3cnn(C(F)F)c3)[C@H](c3ccc(F)cc3Cl)N=C(c3nccs3)N1C2 (stereo partly shown) [Example 6]
Second: Fc1ccc([C@@H]2N=C(c3nccs3)N3CC4(CCCCC4)CC3=C2c2cnn(C(F)F)c2)c(Cl)c1 [Example 9]
The pEC50 of the first is lower: 6.40 to 7.00 for the first, greater than 7.00 for the second.

O=C1N[C@@]2(CO1)CC1=C(c3ccn(C(F)F)n3)[C@H](c3ccc(F)cc3Cl)N=C(c3nccs3)N1C2 [Example 17] and O=C1N[C@]2(CO1)CC1=C(c3ccn(C(F)F)n3)[C@H](c3ccc(F)cc3Cl)N=C(c3nccs3)N1C2 [Example 18] cannot be ordered by pEC50: greater than 7.00 for the first, greater than 7.00 for the second.

CN1C(=O)OC[C@@]12CC1=C(c3ccn(C(F)F)n3)[C@H](c3ccc(F)cc3Cl)N=C(c3nccs3)N1C2 [Example 19] and CN1C(=O)OC[C@]12CC1=C(c3ccn(C(F)F)n3)[C@H](c3ccc(F)cc3Cl)N=C(c3nccs3)N1C2 [Example 26] cannot be ordered by pEC50: greater than 7.00 for the first, greater than 7.00 for the second.

CCN1C(=O)OC[C@@]12CC1=C(c3ccn(C(F)F)n3)[C@H](c3ccc(F)cc3Cl)N=C(c3nccs3)N1C2 [Example 20] and C=CCN1C(=O)OC[C@@]12CC1=C(c3ccn(C(F)F)n3)[C@H](c3ccc(F)cc3Cl)N=C(c3nccs3)N1C2 [Example 25] fall in the same range of pEC50: 6.40 to 7.00 for the first, 6.40 to 7.00 for the second.

Compared with COC(=O)CCN1C(=O)OC[C@@]12CC1=C(c3ccn(C(F)F)n3)[C@H](c3ccc(F)cc3Cl)N=C(c3nccs3)N1C2 [Example 21], COC(=O)CCCN1C(=O)OC[C@]12CC1=C(c3ccn(C(F)F)n3)[C@H](c3ccc(F)cc3Cl)N=C(c3nccs3)N1C2 [Example 32] is higher in pEC50: less than 6.40 for the first, greater than 7.00 for the second.

First: COC(=O)CN1C(=O)OC[C@@]12CC1=C(c3ccn(C(F)F)n3)[C@H](c3ccc(F)cc3Cl)N=C(c3nccs3)N1C2 [Example 23]
Second: COC(=O)CN1C(=O)OC[C@]12CC1=C(c3ccn(C(F)F)n3)[C@H](c3ccc(F)cc3Cl)N=C(c3nccs3)N1C2 [Example 27]
The pEC50 of the first is higher: 6.40 to 7.00 for the first, less than 6.40 for the second. The first is the more potent here.

O=C(O)CN1C(=O)OC[C@@]12CC1=C(c3ccn(C(F)F)n3)[C@H](c3ccc(F)cc3Cl)N=C(c3nccs3)N1C2 [Example 24] and O=C(O)CN1C(=O)OC[C@]12CC1=C(c3ccn(C(F)F)n3)[C@H](c3ccc(F)cc3Cl)N=C(c3nccs3)N1C2 [Example 28] cannot be ordered by pEC50: less than 6.40 for the first, less than 6.40 for the second.

C=CCN1C(=O)OC[C@]12CC1=C(c3ccn(C(F)F)n3)[C@H](c3ccc(F)cc3Cl)N=C(c3nccs3)N1C2 [Example 31] and C/C=C/CN1C(=O)OC[C@]12CC1=C(c3ccn(C(F)F)n3)[C@H](c3ccc(F)cc3Cl)N=C(c3nccs3)N1C2 [Example 36] cannot be ordered by pEC50: less than 6.40 for the first, less than 6.40 for the second.

First: O=C(O)CCCN1C(=O)OC[C@]12CC1=C(c3ccn(C(F)F)n3)[C@H](c3ccc(F)cc3Cl)N=C(c3nccs3)N1C2 [Example 33]
Second: O=C1OC[C@]2(CC3=C(c4ccn(C(F)F)n4)[C@H](c4ccc(F)cc4Cl)N=C(c4nccs4)N3C2)N1C[C@H](O)CO [Example 34]
The pEC50 of the first is higher: 6.40 to 7.00 for the first, less than 6.40 for the second.

O=C1OC[C@]2(CC3=C(c4ccn(C(F)F)n4)[C@H](c4ccc(F)cc4Cl)N=C(c4nccs4)N3C2)N1C[C@@H](O)CO [Example 35] and O=C1NC[C@]2(CC3=C(c4ccn(C(F)F)n4)[C@H](c4ccc(F)cc4Cl)N=C(c4nccs4)N3C2)O1 [Example 41] fall in the same range of pEC50: 6.40 to 7.00 for the first, 6.40 to 7.00 for the second.

Compared with C=CC1OC(=O)N[C@]12CC1=C(c3ccn(C(F)F)n3)[C@H](c3ccc(F)cc3Cl)N=C(c3nccs3)N1C2 (stereo partly shown) [Example 37], CC1OC(=O)N[C@]12CC1=C(c3ccn(C(F)F)n3)[C@H](c3ccc(F)cc3Cl)N=C(c3nccs3)N1C2 (stereo partly shown) [Example 38] is higher in pEC50: 6.40 to 7.00 for the first, greater than 7.00 for the second.

First: COCOCC1OC(=O)N[C@]12CC1=C(c3ccn(C(F)F)n3)[C@H](c3ccc(F)cc3Cl)N=C(c3nccs3)N1C2 (stereo partly shown) [Example 39]
Second: O=C1N[C@]2(CC3=C(c4ccn(C(F)F)n4)[C@H](c4ccc(F)cc4Cl)N=C(c4nccs4)N3C2)C(CO)O1 (stereo partly shown) [Example 40]
The pEC50 of the first is lower: 6.40 to 7.00 for the first, greater than 7.00 for the second. The second is the more potent here.

Compared with O=C1NC[C@@]2(CC3=C(c4ccn(C(F)F)n4)[C@H](c4ccc(F)cc4Cl)N=C(c4nccs4)N3C2)O1 [Example 42], C=CCN1C[C@@]2(CC3=C(c4ccn(C(F)F)n4)[C@H](c4ccc(F)cc4Cl)N=C(c4nccs4)N3C2)OC1=O [Example 43] is higher in pEC50: 6.40 to 7.00 for the first, greater than 7.00 for the second. The second is the more potent here.

Work on CC1OC(=O)N[C@@]12CC1=C(c3ccn(C(F)F)n3)[C@H](c3ccc(F)cc3Cl)N=C(c3nccs3)N1C2 (stereo partly shown) [Example 44] yielded a pEC50 greater than 7.00.

tested on: not listed separately; assay: Compound toxicity, total ATP levels (ATPLite); format: cell-based; conditions: human, HepG2 cells, three days after compound addition, 50% reduction of total ATP levels (ATPLite) relative to no drug controls
Method: Compound toxicity is evaluated by seeding cells at 15,000 cells/well and treating with compound as described above.

CCOC(=O)C1=C2C[C@@]3(CNS(=O)(=O)N3)CN2C(c2nccs2)=N[C@H]1c1ccc(F)cc1Cl (relative stereo) [Example 15] and O=S1(=O)NC[C@@]2(CC3=C(c4cnn(C(F)F)c4)[C@H](c4ccc(F)cc4Cl)N=C(c4nccs4)N3C2)N1 [Example 10] cannot be ordered by CC50 at 3 days: greater than 25 µM for the first, greater than 25 µM for the second.

O=C1NC[C@]2(CC3=C(c4cnn(C(F)F)c4)[C@H](c4ccc(F)cc4Cl)N=C(c4nccs4)N3C2)N1 [Example 2] and O=C1N[C@@]2(CO1)CC1=C(c3cnn(C(F)F)c3)[C@H](c3ccc(F)cc3Cl)N=C(c3nccs3)N1C2 [Example 3] cannot be ordered by CC50 at 3 days: greater than 25 µM for the first, greater than 25 µM for the second.

O=C1N[C@@]2(CO1)CC1=C(c3ccn(C(F)F)n3)[C@H](c3ccc(F)cc3Cl)N=C(c3nccs3)N1C2 [Example 17] and O=C1N[C@]2(CO1)CC1=C(c3ccn(C(F)F)n3)[C@H](c3ccc(F)cc3Cl)N=C(c3nccs3)N1C2 [Example 18] cannot be ordered by CC50 at 3 days: greater than 25 µM for the first, greater than 25 µM for the second.

CN1C(=O)OC[C@@]12CC1=C(c3ccn(C(F)F)n3)[C@H](c3ccc(F)cc3Cl)N=C(c3nccs3)N1C2 [Example 19] and C=CCN1C[C@@]2(CC3=C(c4ccn(C(F)F)n4)[C@H](c4ccc(F)cc4Cl)N=C(c4nccs4)N3C2)OC1=O [Example 43] cannot be ordered by CC50 at 3 days: greater than 25 µM for the first, greater than 25 µM for the second.
